Results published in US11147219B2, “Methods and systems for growing plants using silicate-based substrates, cultivation of enhanced photosynthetic productivity and photosafening by utilization of exogenous glycopyranosides for endogenous glycopyranosyl-protein derivatives, and formulations, process and systems for the same” (Innovation Hammer, LLC, priority 2011, dated 2021).
“Also recorded” adds a separate entry of the source.

Experiments:
plants = assay: Relative potency of glycosides on plants (stated, no method); details: in vivo
[1] = test system: radish "Cherry Bell" Raphanus sativus L.; assay: Greenhouse foliar treatment of radish, root dry weight; format: in vivo; details: for active concentration applied for growth response: foliar, radish
Method: Plant responses to formulations of an alkyl-α-D-mannopyranose and an electron donating-aryl-α-D-mannopyranose were consistent with preferred binding tendencies to displace glucose from storage. Plants were maintained in automated greenhouses controlled for temperature, light and circulation. Environmental conditions during the course of the studies averaged 13:11 hour L:D photoperiod, 25°:20° C. day:night and 20% to 80% relative humidity. Sunlight was supplemented with electrical illumination to achieve photosynthetically active radiation levels ranging from 350 to 600 μmol photons·m^−2·s^−1 at the level of the phylloplane. Solutions for treated and control plants were applied within an hour, otherwise subjecting all plants to identical conditions consistent with good laboratory practices. Solutions applied to controls included nutrients and surfactants identical to the treatment solution, but without the active compound. General supplementation of foliar formulations included the following: 10-100 mM ammonium salt; 1-6 ppm manganese, Mn-EDTA; and 5-10 ppm calcium, Ca-EDTA. For example, foliar solutions of 0.3 mM p-aminophenylmannopyranoside, hereafter referred to as APM, were supplemented with 23 mM ammonium sulfate, (NH4)2SO4, 3 ppm Mn and 6 ppm Ca; and Nutrient Control contained 23 mM (NH4)2SO4, 3 ppm Mn and 6 ppm Ca. The foliar concentrations of Mn and Ca were higher than those specified previously because of the low volumes of foliar applications relative to hydroponic root immersion volumes, and they were particularly effective in combination with foliar applications of compounds because they supported high rates of productivity in the treated plants without phytotoxicity. Compounds for experimentation included the following: methyl-α-D-mannopyranoside (MeM), APM, and methyl-α-D-glucopyranoside (MeG). All foliar solutions were formulated with 1 gm/liter surfactant blend consisting of 0.5 gram DowCorning Q5211 dispersed into 1.5 grams BASF Pluronic L62. As a matter of course, untreated controls that foliar nutrients and wetting agents were not introducing artifacts. The standard volume for foliar application of experimental treatments was 200 liters/hectare. Identical volumes of foliar spray per tray of plant cultures were applied mechanically in a single pass. Controls were placed in the same location and given identical irrigation and handling as the treated plants. To compare the effects of treatments under tightly controlled conditions, plants were cultured, harvested, cleaned and weighed as per previously described methods. Treated plants were statistically analyzed in comparisons against controls. Each survey population held sufficient replicate sample numbers to make meaningful statistical analyses utilizing SPSS® software. Significance was determined at the 95% confidence interval (CI) of the difference. Counts of population numbers are denoted as “n” values. For experiments, radish “Cherry Bell” Raphanus sativus L., a root crop was planted and treated. […] Therefore, least concentrations were selected for statistical experimentation; and 200 l/ha foliar 1 mM MeM or 0.3 mM APM in nutrient-supplemented formulations were applied to 5 cm tall sprouts; while, Nutrient Controls were given foliar applications of identical solutions without the α-D-glycopyranosides; and no foliar solutions were applied to untreated controls which were otherwise identically cultivated and irrigated. For our quantification experiments, when improvements of root productivity over those of nutrient controls were visibly discernible 12 d after treatment, all populations of controls and treatments were harvested, and individual dry weights of treatment and control populations were analyzed.

Radish seedlings = assay: Radish seedling assay, immersion in nutrient solution with α-mannosides; format: in vivo; details: for growth response compared to Nutrient Control (visual): 1 mM TAM, 100 μM MP, 25 μM to 500 μM MeM, 10 μM APM
Method: Plants were cultured in research facilities and consistency of response to treatments was achieved by supplementation with chelated calcium and manganese. All plants were regularly given modified Hoagland water-culture nutrients. […] Controls were placed in the same location and all plants were given the same irrigation, fertilizers, and handling, but without the experimental compounds. Plants were matched to controls and treated within a week of emergence of cotyledon and true leaves. The performance of compounds was evaluated by comparing means of individual dry weights of shoots and roots. Statistics applied two-tailed Student's t-test with p-values significant within 95% confidence intervals. Counts of populations are “n” values and standard error is denoted “±SE.” Specialty chemicals included the following: tetramethyl-β-D-glucoside (TMG); tetraacetyl-D-glucopyranose (TAG); pentaacetyl-α-D-mannopyranose (MP); p-amino-phenyl-α-D-mannoside (APM); methyl-α-D-mannoside (MeM) and methylglucoside (MeG). MPG was synthesized. 2,3,4,6-tetra-O-acetyl-D-mannopyranose (αβ) was utilized. As required, MP and APM were dissolved in a lower aliphatic alcohol prior to dilution in aqueous media.
Assay—Radish seedlings were treated with α-mannosides after emergence of radicles. Seedlings were matched and transferred to Nutrient Control or treatment solutions. Assays were maintained under environmental conditions as follow: Photosynthetically active radiation 100 μEin·m^−2·sec^−1, diel cycle of 16:8 h light:dark, 26:26° C.

Crocus = assay: Rooted Crocus cultivated in 700 μm silicate microbeads, treated with formulation; format: in vivo; details: 0.3 mM APM with 3 ppm Mn, 6 ppm Ca; Crocus in 700 μm microbeads
Method: Individual plants were started from seeds, bulbs, or vegetative clones, inserted into containers of pre-moistened microbeads. Seedlings included ryegrass and corn; bulbs were of Crocus and paperwhite narcissus; and vegetative cuttings were from Coleus. Seeds generally germinated and were selected according to day of emergence of first roots as control and treatment sets. Roots were treated thereafter.
Plants were cultivated under controlled environmental conditions as follow: GE Ecolux® plant and aquarium F40T12 fluorescent illumination, photosynthetically active radiation (PAR) of 100 μEin·m^−2·s^−1, diel cycle of 16:8 h light:dark, 28:26° C., 10% to 20% relative humidity. Indoxyl glycopyranoside (IG) was formulated in water and applied and controls were given equal volumes of water without IG. […] Clear plastic 500 cc containers, perforated for drainage, were filled to a depth of 10 cm with up to 900 grams of microbeads each. Initially, basal plates of bulbs were immersed 1 cm into moistened 700 μm nmd silicate beads to initiate rooting. […] Controls were treated with addition of 0.1 ml water to their media. After 8 h uptake of the treatments, fertigation resumed in a manner consistent with pH-control. […]
For all experiments, at 7 d to 14 d after treatment, microbeads were saturated with water. […] For paperwhites, volumes of entire roots were measured by displacement of water in glass beakers.

radish = assay: Foliar application to radish grown hydroponically in 700 μm microbeads; format: in vivo; details: with 3 ppm Mn, 6 ppm Ca
Method: Approximately 200 grams of beads/cell filled individual 100 cc cells of plastic flats. Roots of radish are cultivated hydroponically by immersion of roots in 700 μm nmd shot, pre-moistened with buffered nutrient solution that included soluble Mn and Ca, and plants were allowed to grow for 72 h prior to treatment with aminophenyl-α-D-mannopyranoside.
4-aminophenyl-α-D-mannopyranoside was dissolved in water (APM needs first to be solubilized in a small volume (1 ml) of ethanol prior to being added into water) with 3 ppm Mn as EDTA, 6 ppm Ca as EDTA, 10% isopropyl alcohol and 1.5 g/L Pluronic L-62. A solution of the formulation was applied to radish foliage. When compared to an identical control formulation without the aminophenyl-α-D-mannopyranoside, the above formulation provided a 20% root increase. For aminophenyl-α-D-mannopyranoside, the proper dose for radish is between 1 to 100 μg per plant and preferably between 5 to 50 μg per plant. This is the equivalent to an application of 75 to 100 gallons per acre at a preferred volume of 100 gallons per acre of up to 2 gm/liter.

[2] = test system: radish (Raphanus sativus L., cultivar "Cherry Bell"); assay: Radish seed germination and seedling growth, nutrient omission media; format: in vivo
Method: Treatment of seeds and seedlings by aqueous solutions is exemplified by mannosides supplemented with soluble divalent cations in complete mannosides formulations. […] Benefits of such exemplary seed priming methods are as follows: Germination and early growth of radish (Raphanus sativus L., cultivar “Cherry Bell”) and Swiss Chard (Beta vulgaris subspecies cicla L., cultivar “Fordhook® Giant”) were tested for response to α-mannosides supplemented with Ca^2+ and/or Mn^2+. Rapid assays of radish seed germination and growth used hydroponic cultures with no solid medium; longer experiments with Swiss Chard used a 2-5 mm substratum of 700 μm diameter glass microbeads. Neutralization of glass microbeads may be undertaken with dilute mildly acidic solution titrated to pH 6; for example, with mineral acids such as hydrochloric acid, sulfuric acid, nitric acid, and the like; organic acids such as uronic, citric, malic, lactic, salicylic, ascorbic, succinic, oxaloacetic, ketoglutaric, fumaric acids, and amino acids, and the like; artificial biological buffering agents such as TRIS, BIS TRIS, MES, MOPS, HEPES, and the like; fertilizers; and most preferably, phosphates; and the most highly preferred compounds are combinations of compounds in a pH 6-buffer that provide major nutrients for plants, such as MAP with DKP or DAP with MKP; and the like. When test medium was added, the glass microbeads formed an even layer, drawing liquid to the surface by capillary action. Seeds were examined to exclude aberrantly large, small, or damaged seeds, and were placed on the surface of the substratum. For experiments using post-germination seedlings, seeds were germinated in deionized water prior to exposure to nutrient media. A seed with an emerged radicle >1 mm was recorded as germinated, and germinated seeds were counted daily, until 95% germination. There was no visible evidence of either desiccation or waterlogging effects. Glass microbeads were removed by immersion and agitation in water, or manually with fine forceps. Harvested plants were oven-dried to determine dry weight. Treatment and control solutions were prepared by dissolving nutrients in deionized ultrapure water.
Growth media were based on omission or inclusion of glycosides and targeted divalent cations. Triose is the abbreviation for α-1,3-α-1,6 mannotriose) and MEM is methyl-α-D-mannoside. Terminology used herein indicates the omission or inclusion of nutrients: 000=control medium with no glycoside, Ca^2+ or Mn^2+; MeMOO=medium with MeM, but no Ca^2+ or Mn^2+; MeMCaO=medium with MeM and Ca^2+, but no Mn^2+, OCaMn=medium with no MeM, but with Ca^2++Mn^2+; and so on. Similar terminology is used for media containing triose. Results cited are means±SE. […]

`OC[C@H]1O[C@H](O[C@H]2[C@H](O)[C@@H](O)C(O)O[C@@H]2CO)[C@H](O)[C@@H](O)[C@@H]1O` (mixture of isomers) [maltose] was tested. Which “potency relative to alpha-MeG” value (plants) did it give?
The value was “lower potency”.

And the “potency relative to beta-MeG” value (plants)?
Its value is 9 ×.

Which “root mean dry weight over the Nutrient Control” value ([1]; foliar 0.3 mM with nutrients) does the source give for `Nc1ccc(O[C@H]2O[C@H](CO)[C@@H](O)[C@H](O)[C@@H]2O)cc1` [APM, 4-amino-phenyl-α-D-mannopyranoside] here?
The value was “significant (n=72; p=0.003) increase”.

And the “root mean dry weight increase over controls” value ([1]; foliar 0.3 mM, 200 l/ha, harvest 12 d after treatment, n=72, p=0.003)?
Its value is “approximately 20%”.

And the “active concentration applied for growth response” value [1]?
The value was 0.3 mM.

And the “mean dry weight of whole plants” value (Radish seedlings; 5 μM, 48 h)?
The value was 9.4 mg.

What about the “difference of mean dry weight from the Nutrient Control” value (Radish seedlings; 5 μM, 48 h, p=0.06) of the same compound?
The value was “not significantly different; also recorded: no significant difference”.

What about the “mean dry weight of whole plants” value (Radish seedlings; 10 μM, 48 h) of the same compound?
Its value is 10.3 mg.

What about the “enhancement of mean dry weight over Nutrient Control” value (Radish seedlings; 100 μM, 48 h) of the same compound?
Its value is 10%.

What about the “mean dry weight of whole plants” value (Radish seedlings; 100 μM, 48 h) of the same compound?
The value was 11 mg.

And the “growth response compared to Nutrient Control (visual)” value (Radish seedlings; 48 h)?
Its value is “advanced growth”.

What about the “root and shoot development / productivity compared to Control” value (Crocus) of the same compound?
Its value is “clearly advanced productivity; also recorded: advanced root and shoot development”.

What about the “root increase compared to identical control formulation” value (radish) of the same compound?
The value was 20%.

How did the “mean dry weight of whole plants” value (Radish seedlings; 100 μM, 48 h) turn out when `CC(=O)OC[C@H]1O[C@H](OC(C)=O)[C@@H](OC(C)=O)[C@@H](OC(C)=O)[C@@H]1OC(C)=O` [MP, pentaacetyl-α-D-mannopyranose] was run?
Its value is 8.2 mg.

And the “growth response compared to Nutrient Control (visual)” value (Radish seedlings; 48 h)?
The value was “advanced growth responses”.

What about the “potency compared with the mixed anomers” value (Radish seedlings; effective doses 100 μM MP and 1 mM TAM) of the same compound?
The value was “higher potency”.

For `CO[C@H]1O[C@H](CO)[C@@H](O)[C@H](O)[C@H]1O` [MeG, methyl-α-D-glucopyranoside, reference compound], which “productivity over nutrient and untreated controls” value ([1]; foliar 129 mM with Ca, Mn and ammoniacal nitrogen) is on record?
Its value is “consistently increased productivities”.

What about the “active concentration applied for growth response” value [1] of the same compound?
Its value is 129 mM.

Which results are given for `CC(=O)OC[C@H]1OC(O)[C@@H](OC(C)=O)[C@@H](OC(C)=O)[C@@H]1OC(C)=O` (stereo partly drawn) [TAM, 2,3,4,6-tetra-O-acetyl-D-mannopyranose (αβ)]?
mean dry weight of whole plants (Radish seedlings; 100 μM, 48 h): 8.1 mg; difference of mean dry weight from the Nutrient Control (Radish seedlings; 100 μM, 48 h, p=0.11): no significant difference; mean dry weight of whole plants (Radish seedlings; 1 mM, 48 h): 8.8 mg; growth response compared to Nutrient Control (visual) (Radish seedlings; 48 h): advanced growth responses

Which results are given for `OC[C@H]1O[C@H](OC[C@H]2OC(O)[C@@H](O)[C@@H](O[C@H]3O[C@H](CO)[C@@H](O)[C@H](O)[C@@H]3O)[C@@H]2O)[C@@H](O)[C@@H](O)[C@@H]1O` (stereo partly drawn) [triose, α-1,3-α-1,6 mannotriose]?
seedling growth compared with no triose ([2]; 1 μM triose, lacking Ca2+): comparable to seedlings grown with no triose; mean dry weight compared with medium with no triose ([2]; 0.3, 1 or 10 μM triose with Mn2+ and Ca2+, 1 day treatment, second day): significantly greater; concentration at which no growth enhancement was observed ([2]; radish seedlings, complete media): less than 0.3 μM
